Reference: patent publication US10351500B2, “Method of using of dihydro-resveratrol or its stilbenoid derivatives and/or chemical variants as antimicrobial agents” (Hong Kong Baptist University, priority 2015, dated 2019)

Tests used:
[1] = system: cerulein-induced acute pancreatitis and associated pulmonary injury; test: cerulein-induced acute pancreatitis in rats, oral dihydro-resveratrol; assay type: in vivo, Sprague-Dawley rats
From the text: Among the several established animal models, repetitive intraperitoneal (i.p.) injection of cholecystokinin secretagogue, cerulein, is the most widely used and a highly reproducible method for the production of an experimental acute pancreatitis. Followed by a single shot of lipopolysaccharide (LPS), pulmonary injury characterized by neutrophil sequestration in the lung tissues and increased permeability of the alveolar membrane barrier is often observed as an acute pancreatitis associated complication. For the diagnosis of the onset of acute pancreatitis, bulky leakage of digestive enzymes, namely α-amylase, into the bloodstream is regarded as the principal pathological parameter. For evaluating the severity of acute pancreatitis and the associated pulmonary injury, morphological alterations of organ architecture including interstitial edema, cellular damage, leukocyte infiltration and hemorrhage are characterized as the histological and/or pathological parameters. Besides histological examination, aberrant MPO activity is often measured for assessing the severity of neutrophil-mediated inflammatory condition. Both the local and systemic inflammatory responses can be further confirmed by the high levels of pro-inflammatory cytokines present in the homogenates of affected tissues. Moreover, glutathione depletion, a defense mechanism, is one of the most common parameters for assessing the severity of tissue injury.
Evaluation of biological activities. Sprague-Dawley rats aged 28 days weighing in the range of 70 to 90 g were randomly assigned into 6 groups of 6 to 8 individuals. The rats were housed with an ambient temperature of 23±2° C., a relative humidity of 60 to 80% and a 12-h light/dark cycle. Prior to the experiment, the rats were starved overnight but allowed with free access to water. Experimental acute pancreatitis was induced in the rats by six hourly i.p. injections of cerulein at the supramaximally stimulating dose (50 μg/kg) followed by a single dose of LPS at 7.5 mg/kg 1 h after the last cerulein injection, and this group of rats was designated as the cerulein group. The control group received injections of 0.9% saline instead of cerulein in the same volume and at same time intervals. The treatment groups given with cerulein and oral doses of dihydro-resveratrol (10, 20 or 50 mg/kg) were designated as Cerulein+D-res 10 or 20 or 50 mg/kg. The therapeutic intervention was given 30 minutes after the first cerulein injection for three consecutive hours. Upon scarification, pancreata were immediately removed, weighed, trimmed from fat and fixed in 4% paraformaldehyde-phosphate buffered saline overnight at 4° C. Samples were then processed, embedded in paraffin wax, sectioned and subjected to H&E staining. Levels of TNF-α in pancreatic and pulmonary samples were determined using commercial ELISA kits. Tissue homogenates were subjected to biochemical assays for the evaluation of MPO activity and glutathione content.

[2] = system: human melanoma A375 cell line; test: MTT cell viability assay, A375; assay type: cell-based; details: A-375, 24 h
Procedure: (§1) The human colorectal carcinoma HCT-116 cell line, human pancreatic ductal adenocarcinoma PANC-1 cell line, human melanoma A375 cell line and human embryonic kidney HEK293 cell line were purchased from the American Type Culture Collection. Cells were cultured in high glucose DMEM growth medium supplemented with 10% fetal bovine serum, penicillin and streptomycin (100 U) in a humidified atmosphere of 5% CO2, 95% air at 37° C. Upon the addition of dihydro-resveratrol (D-res) to the HCT-116, PANC-1, A375 or HEK293 cells seeded at a density of 8000 cells per well in a 96-well plate format, the viability of the testing cells was determined 24 h post treatment using the (3-(4,5-dimethylthiazol-2-yl)-2,5-diphenyltetrazolium bromide) tetrazolium (MTT) reduction assay and expressed as growth inhibition of 50% (GI50, Table 6).

[3] = system: human colorectal carcinoma HCT-116 cell line; test: MTT cell viability assay, HCT-116; assay type: cell-based; details: HCT-116 colorectal carcinoma, 24 h
Procedure: as §1

[4] = system: HCT-116 human colorectal carcinoma xenograft tumor; test: HCT-116 nude mouse xenograft model; assay type: in vivo, BALB/c nude mice; details: for Body weight: tumor-bearing nude mice, D-res 100 mg/kg i.p.
From the text: All animal studies were approved and performed according to Animal Care and Use Guidelines of the Animal Ethics Committee at Hong Kong Baptist University. BALB/c nude mice, SPF class, male, 6-8 weeks old, were purchased from BioLASCO, Taiwan. Before the xenograft experiment, the mice were acclimatized to SPF class laboratory conditions for a week.
HCT-116 cells in logarithmic growth phase were collected by trypsinization. After centrifugation and rinsing, cells were re-suspended in serum-free DMEM medium at 3×10^7 cells/mL. Nude mice were skin disinfected with 75% medical ethanol, subcutaneously injected with 100 μL of the HCT-116 cell suspension using a 25-G syringe to their left flank. The same procedure was repeated for the tumor cell injection to the right flank.
Seven days after tumor cell injection, 24 mice with tumor volumes of 32 mm^3 to 178 mm^3 were randomly assigned into 3 groups; the average initial tumor volumes in each group of mice were 78.04±7.76 mm^3 (vehicle, 8 mice), 78.76±9.40 mm^3 (5-FU, 8 mice), 78.01±7.75 mm^3 (D-res, 8 mice) respectively.
Vehicle solution: 2.5% Ethanol and Cremphor EL (1:1 v/v) dissolved in physiological saline.
5-FU solution: 5-FU powder was dissolved in 2.5% Ethanol and Cremphor EL to a concentration of 5 mg/mL.
D-res solution: Dihydro-resveratrol powder was dissolved in 2.5% Ethanol and Cremphor EL solution to a concentration of 20 mg/mL.
Vehicle group (n=8): 2.5% Ethanol and Cremphor EL solution was intraperitoneally injected every other day for 21 days.
5-FU group (n=8): 5-FU solution was given to mice at 25 mg/kg by intraperitoneal injection every other day for 21 days.
D-res group (n=8): D-res solution was given to mice at 100 mg/kg by intraperitoneal injection every other day for 21 days. This is equivalent to a dosage of no less than 8.13 mg/kg of bodily weight in human.

[5] = 21-day administration, 100 mg/kg i.p.

**Q.** What does the source list for `Oc1ccc(CCc2cc(O)cc(O)c2)cc1` [Dihydro-resveratrol, trans-3,5,4′-trihydroxybibenzyl]?
**A.** Plasma α-amylase activities (mean) ([1]; Cerulein + D-Res 10 mg (oral 10 mg/kg)): 0.2891 U/μl/minute; Plasma α-amylase activities (mean) ([1]; Cerulein + D-Res 20 mg (oral 20 mg/kg), #p<0.05 vs cerulein group): 0.2498# U/μl/minute; Plasma α-amylase activities (mean) ([1]; Cerulein + D-Res 50 mg (oral 50 mg/kg), #p<0.05 vs cerulein group): 0.2431# U/μl/minute; MPO activities in pancreatic and pulmonary tissues ([1]; oral): significantly reduced; ameliorative effect on reducing pancreatic edema compared with trans-resveratrol ([1]; oral): more promising than that of trans-resveratrol; glutathione level in cerulein-induced pancreata ([1]; oral): significantly suppressed glutathione depletion; levels of TNF-α in pancreatic and pulmonary tissues ([1]; oral, ELISA): significantly reduced; focal expansion of interlobular septae, cytoplasmic shrinkage and leukocyte infiltration in pancreatic parenchyma ([1]; oral, H&E): remarkably reduced; pulmonary wall thickening and hemorrhage in lung tissues ([1]; oral, H&E): significantly improved; pancreatic edema (weight ratio of pancreas to body) ([1]; oral, not less than 20 mg/kg): notably reduced the pancreatic edema; GI50 [2]: 107 ± 3.37 µM; GI50 [3]: 102 ± 5.21 µM; effect on body weight of the nude mice [4, 5]: did not lead to a notable reduction in body weight; growth of xenograft tumor (size, volume, weight) compared to 5-FU [4, 5]: more sufficiently restrained; Tumor Volume (mm^3) ([4]; Day 1 (initial), i.p. every other day, 5-FU 25 mg/kg, D-res 100 mg/kg): 78.01 ± 7.75 mm^3; Body weight ([4]; Day 1, 5-FU 25 mg/kg): 20.69 ± 0.55 g; Tumor Volume (mm^3) ([4]; Day 4, i.p. every other day, 5-FU 25 mg/kg, D-res 100 mg/kg): 137.54 ± 14.69 mm^3; Body weight ([4]; Day 4, 5-FU 25 mg/kg): 20.76 ± 0.65 g; Tumor Volume (mm^3) ([4]; Day 7, i.p. every other day, 5-FU 25 mg/kg, D-res 100 mg/kg): 167.58 ± 22.65 mm^3; Body weight ([4]; Day 7, 5-FU 25 mg/kg): 20.33 ± 0.9 g; Tumor Volume (mm^3) ([4]; Day 10, i.p. every other day, 5-FU 25 mg/kg, D-res 100 mg/kg): 273.28 ± 41.5 mm^3; Body weight ([4]; Day 10, 5-FU 25 mg/kg): 20.57 ± 0.66 g; Tumor Volume (mm^3) ([4]; Day 13, i.p. every other day, 5-FU 25 mg/kg, D-res 100 mg/kg): 355.48 ± 78.57 mm^3; Body weight ([4]; Day 13, 5-FU 25 mg/kg): 20.53 ± 0.82 g; Tumor Volume (mm^3) ([4]; Day 16, i.p. every other day, 5-FU 25 mg/kg, D-res 100 mg/kg): 409.35 ± 74.3 mm^3; Body weight ([4]; Day 16, 5-FU 25 mg/kg): 20.31 ± 0.88 g; Tumor Volume (mm^3) ([4]; Day 19, i.p. every other day, 5-FU 25 mg/kg, D-res 100 mg/kg): 585.98 ± 110.96 mm^3; Body weight ([4]; Day 19, 5-FU 25 mg/kg): 20.51 ± 0.87 g; Tumor Volume (mm^3) ([4]; Day 21, i.p. every other day, 5-FU 25 mg/kg, D-res 100 mg/kg): 559.76 ± 100.63 mm^3; Body weight ([4]; Day 21, 5-FU 25 mg/kg): 18.79 ± 0.59 g; Tumor Volume (mm^3) ([4]; Day 22, i.p. every other day, 5-FU 25 mg/kg, D-res 100 mg/kg): 586.92 ± 88.51 mm^3; Body weight ([4]; Day 22, 5-FU 25 mg/kg): 20.63 ± 0.99 g; Tumor weight ([4]; treated for 21 days, i.p. every other day, 5-FU 25 mg/kg, D-res 100 mg/kg): 0.60 ± 0.11 g
